# In patent US5958950A, “Benzimidazole compounds useful for the treatment of inflammatory disease, atherosclerosis, restenosis or inhibiting lipoxygenase” (Warner-Lambert Company, priority 1998, dated 1999):
# Molecular target: T1, rabbit reticulocyte 15-LO (Oryctolagus cuniculus, UniProt P12530)
# T1 construct: rabbit reticulocyte 15-LO; from tissue; host or cells: rabbit reticulocytes
# T1 sequence (P12530 1-663): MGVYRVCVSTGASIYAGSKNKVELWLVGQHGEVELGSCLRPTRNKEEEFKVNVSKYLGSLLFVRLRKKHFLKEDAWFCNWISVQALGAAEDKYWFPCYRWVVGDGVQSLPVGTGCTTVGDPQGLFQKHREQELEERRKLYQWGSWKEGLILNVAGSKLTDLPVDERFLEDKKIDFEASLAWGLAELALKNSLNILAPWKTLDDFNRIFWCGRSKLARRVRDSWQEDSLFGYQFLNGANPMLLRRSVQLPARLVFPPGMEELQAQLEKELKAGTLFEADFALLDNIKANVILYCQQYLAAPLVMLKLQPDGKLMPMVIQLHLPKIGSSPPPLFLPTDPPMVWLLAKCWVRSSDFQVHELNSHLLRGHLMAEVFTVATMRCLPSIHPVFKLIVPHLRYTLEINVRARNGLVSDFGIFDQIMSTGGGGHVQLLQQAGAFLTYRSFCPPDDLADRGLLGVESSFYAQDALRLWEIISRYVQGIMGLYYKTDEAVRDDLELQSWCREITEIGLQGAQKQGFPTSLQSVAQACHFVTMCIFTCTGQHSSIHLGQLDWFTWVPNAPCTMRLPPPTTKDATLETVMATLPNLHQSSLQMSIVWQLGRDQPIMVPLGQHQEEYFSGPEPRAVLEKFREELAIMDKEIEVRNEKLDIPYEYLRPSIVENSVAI
# Test: 15-Lipoxygenase Assay: inhibition of 15-LO with linoleic acid as substrate, HPLC method of Auerbach et al.
# Assay type: biochemical
# Settings: HPLC method; incubation at 4° C. for 10 minutes; read-out: concentration of compounds required to inhibit 50% of the activity of 15-LO (IC50)
# Description: The compounds described above are effective inhibitors of 15-LO when evaluated in standard assays routinely utilized to measure 15-LO activity. Specifically, representative compounds were evaluated by the methods described by Auerbach, et al., Analytical Biochemistry, 1992; 201:375-380.Two in vitro assays were utilized, both utilizing rabbit reticulocyte 15-LO, and linoleic acid as substrate, to enzymatically produce a peroxide oxidation product known as 13(S)-HPODE. N-Benzoyl leucomethylene blue was utilized as a calorimetric reagent for detection and quantification of the peroxide formation. Also, HPLC was utilized to quantify the oxidation following incubation at 4° C. for 10 minutes.
# The 15-LO inhibitory activity of representative compounds is presented in Table I. The data column gives the concentration of compounds required to inhibit 50% of the activity of 15-LO (IC50) when measured by the HPLC method of Auerbach, et al. [drawing 10] Wherein W, X, Y and Z are C--H and R1 is hydrogen.
row,Compound,IC50
1,"Brc1sc(-c2nc3ccccc3[nH]2)nc1-c1ccccc1 [Example 27, 2-(5-Bromo-4-phenyl-thiazol-2-yl)-1H-benzoimidazole]",773 nM
2,"O=C1c2ccccc2C(=O)N1Cc1csc(-c2nc3ccccc3[nH]2)n1 [Example 25, 2-[2-(1H-Benzoimidazole-2yl)-thiazol-4-ylmethyl]-isoindole-1,3-dione]",> 10000 nM
3,"COc1cccc(OC)c1-c1csc(-c2nc3ccccc3[nH]2)n1 [Example 16, 2-[4-(2,6-Dimethoxy-phenyl)-thiazol-2-yl]-1H-benzoimidazole]",> 10000 nM
4,"c1ccc(-c2ccc(-c3csc(-c4nc5ccccc5[nH]4)n3)cc2)cc1 [Example 11, 2-(4-Biphenyl-4-yl-thiazol-2-yl)-1H-benzoimidazole]",> 10000 nM
5,"Brc1ccc(-c2csc(-c3nc4ccccc4[nH]3)n2)cc1 [Example 21, 2-[4-(4-Bromo-phenyl)-thiazol-2-yl]-1H-benzoimidazole]",460 nM
6,"O=C(O)c1sc(-c2nc3ccccc3[nH]2)nc1-c1ccccc1 [Example 29, 2-(lH-Benzoimidazol-2-yl)-4-phenyl-thiazole-5-carboxylic acid]",> 10000 nM
7,"COc1ccc(-c2csc(-c3nc4ccccc4[nH]3)n2)cc1 [Example 10, 2-[4-(4-Methoxy-phenyl)-thiazol-2-yl]-1H-benzoimidazole]",1650 nM
8,c1csc(-c2csc(-c3nc4ccccc4[nH]3)n2)c1 [Example 7],96 nM
9,"Oc1nc(-c2nc3ccccc3[nH]2)sc1-c1ccccc1 [Example 36, 2-(1H-Benzoimidazol-2-yl)-5-phenyl-thiazol-4-ol]",> 10000 nM
10,c1ccc(-c2csc(-c3nc4ccccc4[nH]3)n2)nc1 [Example 1],360 nM
11,"COc1cccc(-c2csc(-c3nc4ccccc4[nH]3)n2)c1 [Example 8, 2-[4-(3-Methoxy-phenyl)-thiazol-2-yl]-1H-benzoimidazole]",500 nM
12,"O=C(NCCCN1CCCCC1)c1csc(-c2nc3ccccc3[nH]2)n1 [Example 32, 2-(1H-Benzoimidazol-2-yl)-thiazole-4-carboxylic acid (3-piperidin-1-yl-propyl)-amide]",> 10000 nM
13,"c1ccc(-c2csc(-c3nc4ccccc4[nH]3)n2)cc1 [Example 6, 2-(4-Phenyl-thiazol-2-yl)-1H-benzoimidazole]",115 nM

# More lines, now with the values ahead:
row,IC50,Compound
1,> 2500 nM,"Oc1ccc(-c2csc(-c3nc4ccccc4[nH]3)n2)cc1O [Example 13, 4-[2-(1H-Benzoimidazol-2-yl)-thiazol-4-yl]-benzene-1,2-diol]"
2,390 nM,"COc1ccc(OC)c(-c2csc(-c3nc4ccccc4[nH]3)n2)c1 [Example 15, 2-[4-(2,5-Dimethoxy-phenyl)-thiazol-2-yl]-1H-benzoimidazole]"
3,207 nM,Clc1ccc(Cl)c(-c2csc(-c3nc4ccccc4[nH]3)n2)c1 [Example 5]
4,> 2500 nM,"Oc1ccc(-c2csc(-c3nc4ccccc4[nH]3)n2)cc1 [Example 12, 4-[2-(1H-Benzoimidazol-2-yl)-thiazol-4-yl]-phenol]"
5,189 nM,Fc1ccc(-c2csc(-c3nc4ccccc4[nH]3)n2)cc1 [Example 3]
6,125 nM,"COc1ccccc1-c1csc(-c2nc3ccccc3[nH]2)n1 [Example 9, 2-[4-(2-Methoxy-phenyl)-thiazol-2-yl]-1H-benzoimidazole]"
7,620 nM,Clc1ccc(-c2csc(-c3nc4ccccc4[nH]3)n2)cc1 [Example 2]
8,330 nM,"Cc1ccccc1-c1csc(-c2nc3ccccc3[nH]2)n1 [Example 19, 2-(4-o-Tolyl-thiazol-2-yl)-1H-benzoimidazole]"
9,200 nM,"Clc1cccc(-c2csc(-c3nc4ccccc4[nH]3)n2)c1 [Example 20, 2-[4-(3-Chloro-phenyl)-thiazol-2-yl]-1H-benzoimidazole]"

# Same assay, conditions: marked (P), not explained; read-out: IC50 (P)
row,IC50,Compound
1,540 nM,c1ccc2[nH]c(-c3nc(-c4ccncc4)cs3)nc2c1 [Example 37]
2,40 nM,"Oc1ccccc1-c1csc(-c2nc3ccccc3[nH]2)n1 [Example 17, 2-[2-(1H-Benzoimidazol-2-yl)-thiazol-4-yl]-phenol]"

# Same assay, conditions: marked (Q), not explained; read-out: IC50 (Q)
row,IC50,Compound
1,810 nM,c1ccc2[nH]c(-c3nc(-c4ccncc4)cs3)nc2c1 [Example 37]
2,80 nM,"Oc1ccccc1-c1csc(-c2nc3ccccc3[nH]2)n1 [Example 17, 2-[2-(1H-Benzoimidazol-2-yl)-thiazol-4-yl]-phenol]"

# Same assay, conditions: read-out: 15-LO inhibitory activity, % @ 10 μM
row,Compound,inhibition at 10 µM
1,"CCOC(=O)c1sc(-c2nc3ccccc3[nH]2)nc1-c1ccccc1 [Example 28, 2-(1H-Benzoimidazol-2-yl)-4-phenyl-thiazole-5-carboxylic acid ethyl ester]",69%
2,"O=C(Nc1ccccc1)c1csc(-c2nc3ccccc3[nH]2)n1 [Example 33, 2-(1H-Benzoimidazol-2-yl)-thiazole-4-carboxylic acid phenylamide]",25.1%
3,"N#Cc1cccc(-c2csc(-c3nc4ccccc4[nH]3)n2)c1 [Example 35, 3-[2-(1H-Benzoimidazol-2-yl)-thiazol-4-yl]-benzonitrile]",45%
4,"O=C(Nc1sc(-c2nc3ccccc3[nH]2)nc1-c1ccccc1)OCc1ccccc1 [Example 34, [2-(1H-Benzoimidazol-2-yl)-4-phenyl-thiazol-5-yl]-carbamic acid benzyl ester]",89.2%
5,"O=C(O)c1csc(-c2nc3ccccc3[nH]2)n1 [Example 31, 2-(1H-Benzoimidazol-2-yl)-thiazole-4-carboxylic acid]",1.38%
6,"CCOC(=O)c1csc(-c2nc3ccccc3[nH]2)n1 [Example 30, 2-(1H-Benzoimidazol-2-yl)-thhiazole-4-carboxylic acid ethyl ester]",25%

# Next, values leading:
row,inhibition at 10 µM,Compound
1,91.3%,"Oc1ccc(Br)cc1-c1csc(-c2nc3ccccc3[nH]2)n1 [Example 14, 2-[2-(1H-Benzoimidazol-2-yl)-thiazol-4-yl]-4-bromo-phenol]"
2,71.6%,"Cc1ccc(-c2csc(-c3nc4ccccc4[nH]3)n2)cc1 [Example 18, 2-(4-p-Tolyl-thiazol-2-yl)-1H-benzoimidazole]"
